Read-outs that look alike come from different tables or passages of the source.

The term EC50 denotes the concentration at which the effect is half-maximal. A higher EC50 goes with a less potent agent.

The subject of experiment [1] is human PIK3CA mutation-positive breast cancer cell line MDA-MB-453 cells. Put plainly: Scaffold independent cell proliferation inhibitory effect, MDA-MB-453 cells. The experiment is classed as cell-based. The conditions noted are these: non-adhesive plate, 4 days, CellTiter-Glo, read-out: IC50 (cell proliferation inhibition). Here is the method: The effect on proliferation of cancer cells of the test compound was evaluated.
Measurement (colony method) of the scaffold independent cell proliferation is known as a system in which the anti-cancer effect of the test compound is examined. As a method for measuring cell-non-adhesive proliferation substituting the colony method, there is a method of using a non-adhesive plate as follows.
Thereafter, the cells were cultured for 4 days at 37° C. in the absence of CO2, and a cytometric reagent (CellTiter-Glo Luminescent Cell Viability assay manufactured by Promega Corporation) was added. The resultant product was stirred for 30 minutes, and then measurement was carried out using a luminescence measurement apparatus (ARVO manufactured by Perkin Elmer Inc.).
(In general: ATP-based viability assays read luminescence as a measure of living cells.)

Experiment [2] concerns AMPK. Put plainly: Evaluation of AMPK activation effect (phosphorylation of ACC Ser79, Cell ELISA in MDA-MB-453 cells). The experiment is classed as cell-based, human. Particulars: 2 hours. Here is the method:
By measuring phosphorylation of 79th serine (Ser79) of Acetyl-CoA Carboxylase (ACC) which is a substrate of AMPK with Cell ELISA, the AMPK activation effect by the test compound was evaluated.
In order to make MDA-MB-453 cell become 15000 cells per well, each 36 μl was seeded in Leibovitz's L-15 medium including 10% fetal bovine serum (manufactured by Life Technologies Corp.) in a 384 well plate, followed by culturing at 37° C. overnight in the absence of CO2. […] After the incubation, 20 μl of a 40% glyoxal solution (Nacalai Tesque) was added to each well, and then cells were fixed by leaving to stand at room temperature for 30 minutes. Thereafter, the supernatant was removed by centrifuging the plate, and then 0.1% Triton X-100-containing Phosphate-Buffered Saline (PBS) was added to each well by 20 followed by incubating at room temperature for 10 minutes. The 0.1% Triton X-100-containing PBS was removed by centrifuging for 8 seconds at 800 rpm (all solution removal operation by centrifuge described below were carried out under the same conditions), and then a blocking solution (ODYSSEY Blocking Buffer; manufactured by Li—COR Biosciences) was added to each well by 20 μl, followed by leaving to stand at room temperature for 1 hour. The blocking solution was removed by centrifuging, with the exception of the blocking solution by centrifugation, and then a blocking solution which was diluted such that the amount of phosphorylation antibody (manufactured by Cell Signaling Technology, Inc) of ACC Ser79 as a primary antibody is 1/500 was added to each well by 10 followed by leaving to stand at 4° C. overnight. The following day, the reaction liquid was removed by centrifuging the plate, and then 0.05% Tween-20-containing Tris-Buffered Saline (TBS) (manufacture by Thermo Scientific Inc.; used in 1× in which 20×TBS Tween-20 was diluted with ion-exchange water) was added to each well by 25 followed by washing each well by centrifugal removal. The washing of each well was repeated for a total of 3 times. After washing, a blocking solution which was diluted such that the amount of IRDye 800CW Goat anti-Rabbit IgG (manufactured by Li—CoR Biosciences) as a secondary antibody is 1/1000 was added to each well by 10 μl, followed by leaving to stand at room temperature for 1 hour. After the secondary antibody reaction, the reaction liquid was removed by centrifuging the plate, and then each well was washed three times with 0.05% Tween-20-containing TBS in the same manner as after the primary antibody reaction. After the washing solution was removed, without change, the plate was air-dried at room temperature for 3 hours or longer and signals were measured by Aerius (manufactured by Li—CoR Biosciences).
(In general: ELISA stands for enzyme-linked immunosorbent assay.)

Experiment [3] addresses human mitochondrial Complex I (Homo sapiens, UniProt O75251+O75306+P03886). The experiment is classed as biochemical. On the procedure: Mitochondria was extracted from MDA-MB-453 tumor, and the Complex I inhibitory activity of the test compound was evaluated.
Human PIK3CA mutation-positive breast cancer cell line MDA-MB-453 cells were subcutaneously implanted into nude mice, MDA-MB-453 tumor was excised, a mitochondria extraction solution (0.25 M Sucrose, 2 mM EDTA, 10 mM Tris/HCl pH 7.5) of 9 times of tumor weight was added thereto, and crushing was carried out thereon. The reaction mixture was centrifuged at 600×g and 4° C. for 10 minutes to obtain a supernatant, and the supernatant was centrifuged at 14000×g and 4° C. for 10 minutes, thereby obtaining a pellet. The pellet was suspended in 10 mM Tris/HCl pH 7.5 of 5 times of the excised tumor weight, thereby obtaining a human mitochondrial suspension.
Next, 25 μl of the human mitochondrial suspension per 1 ml of Complex I activity measurement solution (200 mM potassium phosphate pH 7.6, 0.35% Bovine Serum Albumin (BSA), 60 μM 2,6-dichlorophenol-indophenol, 70 μM decylubiquinone, 1 μM antimycin) was added. After dispensed into a 96 or 384-well plate, a test compound (from 10000 nM to 0.3 nM) and DMSO which is a solvent for the test compound as a negative control were added such that a final concentration of Rotenone which is a Complex I inhibitor as a positive control becomes 1 μM. Further, NADH was added so as to have a final concentration of 0.2 mM, and a change in absorbance at a wavelength of 600 nm using SpectraMax (manufactured by Molecular Devices LLC) set to 37° C. in advance was measured. […] Moreover, in the Table, Ex indicates Example No. (the same shall apply hereinafter.).

Experiment [4] concerns MDA-MB-453 cells. Kind of experiment: Anti-tumor effect in MDA-MB-453 cell cancer-bearing mouse. The conditions noted are these: oral, once a day for 15 days, Balb/c nude mouse. Format: in vivo. On the procedure:
3×10^6 cells of MDA-MB-453 cells which were suspended with PBS were subcutaneously injected to be planted in the back of a 5 to 6 weeks old male Balb/c nude mouse (provided by Charles River Laboratories, Japan). 10 days after planting, the test compound was administered. The test was carried out on respective five mice of the solvent group and the test compound administered group, and 6% aqueous cyclodextrin solution was administered to the solvent group, and a mixture of 6% aqueous cyclodextrin solution and the test compound (1 or 3 mg/kg) was orally administered to the test compound administered group. Administration was carried out once a day for 15 days, and body weight and tumor size were measured approximately every other day. The following equation was used to calculate the tumor volume.

Where [5] appears, read: mitochondria from MDA-MB-453 tumor, absorbance 600 nm, 37° C.; read-out: IC50 (Complex I inhibition).

human mitochondrial Complex I, sequence (O75251 39-213 limits assumed): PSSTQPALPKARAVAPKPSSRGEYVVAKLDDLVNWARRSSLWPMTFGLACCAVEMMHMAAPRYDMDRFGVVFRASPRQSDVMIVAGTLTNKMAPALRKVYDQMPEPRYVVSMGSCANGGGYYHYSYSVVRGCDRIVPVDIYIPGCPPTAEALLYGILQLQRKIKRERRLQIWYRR
human mitochondrial Complex I, sequence (O75306 34-463 limits assumed): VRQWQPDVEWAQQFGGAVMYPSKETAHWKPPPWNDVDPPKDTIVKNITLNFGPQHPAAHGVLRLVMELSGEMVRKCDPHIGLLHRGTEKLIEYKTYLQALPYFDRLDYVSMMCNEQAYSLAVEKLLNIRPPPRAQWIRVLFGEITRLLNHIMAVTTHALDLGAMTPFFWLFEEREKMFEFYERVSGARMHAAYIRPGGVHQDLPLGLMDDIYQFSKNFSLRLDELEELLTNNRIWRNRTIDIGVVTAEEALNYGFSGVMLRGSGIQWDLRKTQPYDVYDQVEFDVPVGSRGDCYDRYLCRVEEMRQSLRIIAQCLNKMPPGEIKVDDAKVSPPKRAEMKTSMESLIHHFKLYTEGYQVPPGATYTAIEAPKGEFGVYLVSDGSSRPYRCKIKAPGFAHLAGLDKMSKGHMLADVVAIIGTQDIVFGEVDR
human mitochondrial Complex I, sequence (P03886 whole entry): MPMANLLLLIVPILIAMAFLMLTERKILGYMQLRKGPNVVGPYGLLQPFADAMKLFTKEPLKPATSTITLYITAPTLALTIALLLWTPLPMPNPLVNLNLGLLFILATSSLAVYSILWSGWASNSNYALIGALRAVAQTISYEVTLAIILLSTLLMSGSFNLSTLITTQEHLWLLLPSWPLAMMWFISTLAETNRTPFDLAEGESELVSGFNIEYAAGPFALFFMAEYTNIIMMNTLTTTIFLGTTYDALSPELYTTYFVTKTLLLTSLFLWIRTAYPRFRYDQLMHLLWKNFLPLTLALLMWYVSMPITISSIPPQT

Consider `COc1ccc(CN2CCC(c3ccc4nc(C(=O)N5CCN(Cc6ccc(C#N)cc6)CC5)[nH]c4c3)CC2)cn1` [Example 23], for which the IC50 in experiment [1] (Homo sapiens, 96 h) was determined as 40 nM; in experiment [3] (setting [5]) it was 160 nM. Besides, a half-maximal response in experiment [2] (EC50) required 19 nM.
As for `COc1ccc(CN2CCC(c3ccc4nc(C(=O)N5CCN(Cc6ccc7c(c6)OC(F)(F)O7)CC5)[nH]c4c3)CC2)cn1` [Example 37], the IC50 in experiment [1] (Homo sapiens, 96 h) came to 8.9 nM; in experiment [3] (setting [5]), 29 nM. Moreover, a half-maximal response in experiment [2] (EC50) required 10 nM.
On to `COc1ccc(CN2CCC(c3ccc4nc(C(=O)N5CCN(Cc6ccc(C(F)(F)F)cc6F)CC5)[nH]c4c3)CC2)cn1` [Example 38], for which the IC50 in experiment [1] (Homo sapiens, 96 h) was found to be 8.1 nM; in experiment [3] (setting [5]), 59 nM. The EC50 in experiment [2] is 13 nM.
`COc1ccc(CN2CCC(c3ccc4nc(C(=O)N5CCN(Cc6ccc(C(F)(F)F)cc6)CC5)n(C)c4c3)CC2)cn1` [Example 18] returned a concentration giving a half-maximal response (EC50) in experiment [2] of 3 nM.
For the compound `COc1cnc(CN2CCC(c3ccc4[nH]c(C(=O)N5CCN(Cc6ccc(C(F)(F)F)cc6)CC5)nc4c3)CC2)cn1` [Example 7, (5-{1-[(5-methoxypyrazin-2-yl)methyl]piperidin-4-yl}-1H-benzimidazol-2-yl){4-[4-(trifluoromethyl)benzyl]piperazin-1-yl}methanone ditosylate], the IC50 in experiment [1] (Homo sapiens, 96 h) is 12 nM; in experiment [3] (setting [5]) it was 75 nM. The “Anti-tumor effect, regression rate” value in experiment [4] (3 mg/kg) turned out to be 49% regression.
Turning to `Cc1cnc(CN2CCC(c3ccc4nc(C(=O)N5CCN(Cc6ccc(C(F)(F)F)cc6)CC5)[nH]c4c3)CC2)cn1.Cl.Cl.Cl` [Example 8, (6-{1-[(5-methylpyrazin-2-yl)methyl]piperidin-4-yl}-1H-benzimidazol-2-yl){4-[4-(trifluoromethyl)benzyl]piperazin-1-yl}methanone trihydrochloride], the IC50 was 26 nM in experiment [1] (Homo sapiens, 96 h) and 83 nM in experiment [3] (read-out: IC50 (Complex I inhibition); mitochondria from MDA-MB-453 tumor, absorbance 600 nm, 37° C.). Moreover, the “Anti-tumor effect, inhibition rate” value in experiment [4] (3 mg/kg) worked out at 88% inhibition. In experiment [2], this compound displayed an EC50 of 13 nM.
Take `CCOc1cnc(CN2CCC(c3ccc4cc(C(=O)N5CCN(Cc6ccc(C#N)cc6)CC5)n(C)c4c3)CC2)cn1` [Example 69]: the IC50 was determined as 3.2 nM in experiment [1] (Homo sapiens, 96 h) and 22 nM in experiment [3] (setting [5]). Also, the “Anti-tumor effect, regression rate” value in experiment [4] (1 mg/kg) is recorded as 87% regression.
`COc1ccc(CN2CCC(c3cc4cc(C(=O)N5CCN(Cc6ccc(C(F)(F)F)cc6)CC5)n(C)c4cn3)CC2)cn1` [Example 44]: the IC50 in experiment [1] (Homo sapiens, 96 h) was 4.2 nM; in experiment [3] (setting [5]), 87 nM. The compound further yielded an EC50 in experiment [2] of 5.2 nM.
With `COc1ccc(CN2CCC(c3ccc4[nH]c(C(=O)N5CCN(Cc6ccc(C(F)(F)F)cc6)CC5)nc4c3)CC2)cn1` [Example 1, (5-{1-[(6-methoxypyridin-3-yl)methyl]piperidin-4-yl}-1H-benzimidazol-2-yl){4-[4-(trifluoromethyl)benzyl]piperazin-1-yl}methanone ditosylate], in experiment [4] (3 mg/kg), the “Anti-tumor effect, regression rate” value worked out at 26% regression.
Compound `COc1ccc(CN2CCC(n3cc4cc(C(=O)N5CCN(Cc6ccc(C(F)(F)F)cc6)CC5)ccc4n3)CC2)cn1` [Example 57] gave an EC50 in experiment [2] of 1.8 nM.
For the compound `COc1cnc(CN2CCC(c3ccn4nc(C(=O)N5CCN(Cc6ccc(C(F)(F)F)cc6)CC5)cc4c3)CC2)cn1` [Example 50], the IC50 in experiment [1] (Homo sapiens, 96 h) came out at 4 nM. The midpoint of the response in experiment [2], the EC50, lay at 14 nM.
Compound `COc1ccc(CN2CCC(c3ccc4nc(C(=O)N5CCN(Cc6ccc(C(F)(F)F)cc6)CC5)cn4c3)CC2)cn1` [Example 35] returned an EC50 in experiment [2] of 3.6 nM.
On to `COc1ccc(CN2CCC(c3ccc4c(c3)nc(C(=O)N3CCN(Cc5ccc(C(F)(F)F)cc5)CC3)n4C)CC2)cn1` [Example 19], for which, in experiment [1] (Homo sapiens, 96 h), the IC50 stood at 8.5 nM. The EC50 in experiment [2] was 10 nM.
Taken in the same sequence, the figures for `CCOc1cnc(CN2CCC(n3cc4cc(C(=O)N5CCN(Cc6ccc(C(F)(F)F)cc6)CC5)ccc4n3)CC2)cn1` [Example 58] were 0.55 nM and 0.86 nM.
Take `COc1ccc(CN2CCC(c3ccn4nc(C(=O)N5CCN(Cc6ccc(C(F)(F)F)cc6)CC5)cc4c3)CC2)cn1` [Example 49]: the IC50 worked out at 2.8 nM in experiment [1] (Homo sapiens, 96 h) and 18 nM in experiment [3] (setting [5]). The compound further registered an EC50 in experiment [2] of 6.5 nM.
As to `COc1ccc(CN2CCC(c3ccn4cc(C(=O)N5CCN(Cc6ccc(C(F)(F)F)cc6)CC5)nc4c3)CC2)cn1` [Example 36, (7-{1-[(6-methoxypyridin-3-yl)methyl]piperidin-4-yl}imidazo[1,2-a]pyridin-2-yl){4-[4-(trifluoromethyl)benzyl]piperazin-1-yl}methanone ditosylate], the IC50 in experiment [1] (Homo sapiens, 96 h) was found to be 11 nM; in experiment [3] (setting [5]) it was 55 nM. Also, the “Anti-tumor effect, regression rate” value in experiment [4] (3 mg/kg) came out at 10% regression. Moreover, the EC50 in experiment [2] worked out at 5.1 nM.
Regarding `COc1ccc(CN2CCC(c3ccc4nc(C(=O)N5CCN(Cc6ccc(C(F)(F)F)cc6)CC5)[nH]c4c3)CC2)cc1` [Example 14], the IC50 in experiment [1] (Homo sapiens, 96 h) turned out to be 7.6 nM. In addition, the EC50 in experiment [2] was 34 nM.
In the case of `CCOc1cnc(CN2CCC(c3ccc4c(c3)cc(C(=O)N3CCN(Cc5ccc(C#N)cc5)CC3)n4C)CC2)cn1` [Example 66], the IC50 in experiment [1] (Homo sapiens, 96 h) was found to be 6.2 nM; in experiment [3] (setting [5]), 120 nM. For the same compound, the “Anti-tumor effect, regression rate” value in experiment [4] (1 mg/kg) was determined as 91% regression. In experiment [2], this compound had an EC50 of 2.8 nM.
Consider `COc1cnc(CN2CCC(c3ccc4c(c3)cc(C(=O)N3CCN(Cc5ccc(C#N)cc5)CC3)n4C)CC2)cn1` [Ex 79], for which the results for the IC50 in experiment [1] and in experiment [3] (setting [5]) were 7.8 nM and 120 nM, respectively. Further, in experiment [4] (1 mg/kg), the “Anti-tumor effect, regression rate” value is given as 43% regression. The compound also displayed a concentration for a half-maximal effect (EC50) in experiment [2] of 3.3 nM.

Values taken from US9428501B2, “Bicyclic nitrogen-containing aromatic heterocyclic amide compound” (ASTELLAS PHARMA INC., priority 2013, dated 2016).
